Reference: patent US10787423B2, “Piperazine and piperidine derivatives, their synthesis and use thereof in inhibiting VDAC oligomerization, apoptosis and mitochondria dysfunction” (THE NATIONAL INSTITUTE FOR BIOTECHNOLOGY IN THE NEGEV LTD., priority 2015, dated 2020)

Biological target: T1, rVDAC1-GFP2 / rVDAC1-Rluc in T-REx-293 cells (Rattus norvegicus, UniProt Q9Z2L0)
T1 construct: The rVDAC1 gene was cloned into BamHI and HindIII sites of the BRET2 plasmids (N2 variants); expressed in transfected cells; host or cells: T-REx-293 cells stably expressing hVDAC1-shRNA (T-REx-pS10)
Experiment: BRET2 assay of VDAC1 oligomerization induced by apoptosis inducers (Method A)
Type: cell-based
Conditions: test compound 10 μM, 1 h pre-incubation; for BRET2, % of inhibition, As2O3: As2O3 60 μM (3 h); for BRET2, % of inhibition, STS: STS 1 μM (3 h); for BRET2, % of inhibition, Selenite: selenite 30 μM (3 h)
Excerpt: BRET2 screening may be carried out as described in the art ([…] et al., (2010) Oligomerization of the mitochondrial protein voltage-dependent anion channel is coupled to the induction of apoptosis. Mol Cell Biol 30, 5698-5709). Plasmids encoding the fusion proteins rat(r)VDAC1-GFP2 and rVDAC1-luc were constructed using the BRET2 plasmids (Perkin Elmer, Waltham, Mass.). The rVDAC1 gene was cloned into BamHI and HindIII sites of the BRET2 plasmids (N2 variants) and amplified using the forward primer [NT] and the reverse primer [NT]. […] The cells were transfected using calcium phosphate method. Transfections were carried out with 0.2 μg of a plasmid coding for rVDAC1-Rluc and with 0.8 μg of a plasmid coding for rVDAC1-GFP2. As a negative control, cells were transfected with plasmids encoding for rVDAC1-Rluc (0.2 μg DNA) and GFP2 (0.8 μg). In another control (control cells), cells were also transfected with a plasmid encoding for rVDAC1-luc (0.2 μg) and plasmid pcDNA4/TO (0.8 μg). The BRET2 signal represents the ratio of the GFP2 fluorescence, measured at its emission wavelength (510 nm), over the light intensity (luminescence) emitted at 395 nm. All measurements were performed using the Infinite 200 ELISA reader (Tecan). BRET2 signals were defined as GFP2/Rluc intensity ratio and calculated as follows: DNA encoding fusion proteins rVDAC1-Rluc (in which RLuc was connected to rVDAC1 at the C terminal position through a linker (GGGS)) and rVDAC1-GFP2 (in which the GFP2 was fused to the rVDAC1 C terminus) was cloned into BRET2 vectors. rVDAC1-GFP2 and rVDAC1-Rluc were expressed in T-REx-293 cells stably expressing shRNA-hVDAC1 and a low level of endogenous hVDAC1 (referred to as T-REx-pS10 cells) hVDAC1-shRNA, being specific to human VDAC1, allowed the expression of rVDAC1 and decreased the participation of endogenous hVDAC1 in oligomerization, thereby enhancing the BRET2 signal. rVDAC1-GFP2 and rVDAC1-Rluc expression levels were correlated with the amount of plasmids used. […] Following incubation, cells were harvested using trypsin, washed twice with PBS by centrifugation at 1000×g, 5 min, resuspended in 200 μl of PBS and divided between two wells of a 96-well clear-bottom plate (Grenier). […] The screening was conducted using BRET2 assay as described above. […] After treatment, the medium was removed and assayed for BRET2 signals as described above. Liquid handling was done with the Tecan (Männedorf, Switzerland) Freedom 150 Robotic & MCA Liquid Handling System, while luciferase luminescence and fluorescence readings were obtained a robot-integrated Tecan Infinite M1000 reader. Method A was used for screening of VDAC1 oligomerization inhibitors. […] Table 2 provides a summary of BRET2-based screen results of the anti-VDAC1 oligomerization activity of compounds from the NCI library. Results are presented as percent inhibition of the BRET2 signal induced by the indicated pro-apoptotic agent.

T1 sequence (Q9Z2L0 with tags, fused parts or gaps limits assumed): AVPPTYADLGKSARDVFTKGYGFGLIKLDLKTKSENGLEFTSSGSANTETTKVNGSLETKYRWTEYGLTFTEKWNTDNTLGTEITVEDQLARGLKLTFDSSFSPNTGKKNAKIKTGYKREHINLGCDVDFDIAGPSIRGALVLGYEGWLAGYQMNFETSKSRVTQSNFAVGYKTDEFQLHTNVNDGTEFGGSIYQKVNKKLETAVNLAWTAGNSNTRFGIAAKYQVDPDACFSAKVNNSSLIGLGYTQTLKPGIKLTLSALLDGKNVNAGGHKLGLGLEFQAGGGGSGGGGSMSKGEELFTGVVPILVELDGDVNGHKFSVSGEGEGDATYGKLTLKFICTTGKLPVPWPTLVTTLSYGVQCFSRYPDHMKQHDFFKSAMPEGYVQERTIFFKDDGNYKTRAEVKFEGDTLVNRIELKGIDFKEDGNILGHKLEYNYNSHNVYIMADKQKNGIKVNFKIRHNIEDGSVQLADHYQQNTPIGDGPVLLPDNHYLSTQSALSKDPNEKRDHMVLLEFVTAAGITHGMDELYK

SMILES	BRET2, % of inhibition, As2O3 [%]	BRET2, % of inhibition, STS [%]	BRET2, % of inhibition, Selenite [%]
CN1CCN(C(=O)Nc2ccc([N+](=O)[O-])cc2)CC1 [NSC 36815]	67.7	34.5	50
NC(=O)c1ccc(Oc2ccc(C(N)=O)cc2)cc1 [NSC 39047]	70.2	39.1	54
O=C(O)c1cccc2c1C(=O)c1cccc3snc-2c13 [NSC 39938]	48.7	0	18.8
O=C(O)c1cc2ccccc2cc1Nc1ccccc1 [NSC 40275]	64.8	16.8	35.2
O=C(O)c1ccccc1C(=O)Nc1ccccc1[N+](=O)[O-] [NSC 41066]	48.8	0	0
CN1[C@@H]2CC[C@H]1CC(OC(c1ccccc1)c1ccccc1)C2.CS(=O)(=O)O (stereo partly drawn) [NSC 42199]	97	31	78.7
O=P(O)(O)c1cc(-c2ccccc2)oc1-c1ccccc1 [NSC 43344]	80.7	23.8	50.1
CC(C)OC(=O)Nc1ccc(-c2ccc(NC(=O)OC(C)C)cc2Cl)c(Cl)c1 [NSC 43678]	95.1	34.6	78.3
NCc1c(O)ccc2ccccc12 [NSC 48422]	0	36.8	38.6
O=C(Nc1ccc(C2=NCCN2)cc1)c1ccc(Cl)c(C(=O)Nc2ccc(C3=NCCN3)cc2)c1 [NSC 67436]	78.1	14.8	65.7
Nc1nc(N)c(C=Nc2ccc(Br)cc2)c(Nc2ccc(Br)cc2)n1 [NSC 103520]	82.5	22.7	74
CC#CC#Cc1cccc(=O)o1 [NSC 109292]	75.4	0	0
O=C1CN2CCC1C/C2=C\c1ccnc2c(Cl)cccc12 (stereo not drawn) [NSC 132868]	55.5	0	41.4
Cc1ccc([N+](=O)[O-])cc1NC(=O)Nc1ccc(S(N)(=O)=O)cc1 [NSC 146554]	100	0	71.8
O=C(Nc1ccc(Nc2ccncc2)cc1)c1ccc(Nc2ccnc3ccc([N+](=O)[O-])cc23)cc1 [NSC 146771]	70.7	41.2	68.1
O=C(O)c1cc2ccccc2c2cc(Br)ccc12 [NSC 151252]	100	0	29.8
Clc1ccc(/C=C/c2nc(Cl)c(-c3ccc(Cl)cc3)c(Cl)n2)cc1 [NSC 154389]	90.6	45.9	90.6
Nc1ccc(C(=O)Oc2ccc([N+](=O)[O-])cc2)cc1 [NSC 163802]	65.8	0	1.2
CCCCC(=O)N1CCCC(C)C1 (stereo not drawn) [NSC 191029]	86.5	0	36.4
O=C(Nc1cccc([N+](=O)[O-])c1)c1cccc(C(=O)Nc2cccc([N+](=O)[O-])c2)c1 [NSC 204232]	90.3	0	32.5
O=C(/C=C/c1ccccc1)NC(=S)Nc1ncccn1 [NSC 205968]	58.5	0	0
